Laboratory results published in PubChem BioAssay AID1259408 (Genetic Toxicology Data Bank (GENE-TOX), 2018).
The source made the active and inactive calls. The rule behind the calls is not given here.

Tested on: GENE-TOX genotoxicity assays, various organisms and cells
Assay: GENE-TOX mutagenicity studies
Conditions: for call: Assay Type: In vivo carcinogenicity studies
[1] = Species/Cell Type: Salmonella typhimurium (one or more of the five standard strains: TA98, TA100, TA1535, TA1537, and TA1538), Assay Type: Histidine reverse gene mutation, Ames assay, Assay Code: SAL+, Evaluation Type: Evaluation A (Pre-1980)
[2] = Species/Cell Type: Syrian hamster embryo (SHE) cells, Assay Type: Cell transformation, clonal assay, Assay Code: CTC+, Evaluation Type: Evaluation A (Pre-1980)
[3] = Species/Cell Type: Escherichia coli polA (W3119 vs P3478), Assay Type: Rec-assay, DNA effects (bacterial DNA repair), Assay Code: RE1T, Evaluation Type: Evaluation A (Pre-1980)

For `c1ccc2c(c1)-c1cc3ccc4ccccc4c3cc1C1OC21` (stereo not drawn), the mutagenic call (Species/Cell Type: Chinese hamster lung (V79) cells, Assay Type: Forward gene mutation at the HPRT or ouabain locus, Assay Code: V79+, Evaluation Type: Evaluation A (Pre-1980)) was “active; positive”, the mutagenic call (Species/Cell Type: Human diploid fibroblasts, Assay Type: Unscheduled DNA synthesis (UDS) in vitro, DNA effects, Assay Code: UDHT, Evaluation Type: Evaluation A (Pre-1980)) was “no conclusion” and the mutagenic call (Species/Cell Type: Mouse prostate cells, Assay Type: Cell transformation, Assay Code: CTM+D, Dose Response: With dose response, Evaluation Type: Evaluation A (Pre-1980)) was “active; positive”. For the same compound, the call (Species/Cell Type: Nonhuman, Assay Code: CCG+L, Evaluation Type: Evaluation A (Pre-1980)) was “active; positive”, the mutagenic call (Species/Cell Type: Nonhuman, Assay Type: Sister-chromatid exchange (SCE) in vitro, Assay Code: SC2+D, Dose Response: With dose response, Evaluation Type: Evaluation B (Post-1980)) was “active; positive” and the mutagenic call [1] was “active; positive”. For the same compound, the mutagenic call [2] was “active; positive”.
In the case of `CCCCNCC`, the mutagenic call (Species/Cell Type: Fischer rat embryo (RLV/1706) cells, Assay Type: Cell transformation, viral enhanced, Assay Code: CTR-, Evaluation Type: Evaluation A (Pre-1980)) is reported as “inactive; negative”.
For `O=[N+]([O-])c1ccc(N2CC2)c2c1no[n+]2[O-]`, the mutagenic call [1] was “active; positive”.
With `COC(=O)/C=C(\C)CCCC(C)(Cl)CCCC(C)(C)Cl` (stereo not drawn) the mutagenic call (Species/Cell Type: Drosophila melanogaster, Assay Type: Sex-linked recessive lethal gene mutation, Assay Code: SRLT, Evaluation Type: Evaluation A (Pre-1980)) was “no conclusion”.
In the case of `COc1ccc(-c2c(-c3ccc(OC)cc3)c3ccc(OC)cc3c3cc(OC)ccc23)cc1`, the mutagenic call (Species/Cell Type: Salmonella typhimurium (one or more of the five standard strains: TA98, TA100, TA1535, TA1537, and TA1538), Assay Type: Histidine reverse gene mutation, Ames assay, Assay Code: SALT, Evaluation Type: Evaluation A (Pre-1980)) is reported as “no conclusion”.
`O=c1ccc2ccc3occc3c2o1` was tested, and the mutagenic call (Species/Cell Type: Mammalian cell culture, nonhuman, Assay Type: Micronucleus test in vitro, chromosome aberrations, Assay Code: MN&+, Evaluation Type: Evaluation A (Pre-1980)) was “active; positive” and the mutagenic call (Species/Cell Type: Saccharomyces cerevisiae, Assay Type: Reverse gene mutation, Assay Code: YERT, Evaluation Type: Evaluation A (Pre-1980)) was “no conclusion”.
With `Nc1ccc2cc3ccccc3cc2c1` the mutagenic call (Species/Cell Type: Escherichia coli polA (W3110 vs P3478), Assay Type: Rec-assay, DNA effects (bacterial DNA repair), Assay Code: RE2+, Evaluation Type: Evaluation A (Pre-1980)) was “active; positive”, the mutagenic call [3] was “no conclusion” and the mutagenic call (Species/Cell Type: Mouse (BALB/c-3T3) cells, Assay Type: Cell transformation, Assay Code: CTB-, Evaluation Type: Evaluation A (Pre-1980)) was “inactive; negative”. For the same compound, the mutagenic call (Species/Cell Type: Mouse embryo (AKR/ME) cells, Assay Type: Cell transformation, Assay Code: CTK+, Evaluation Type: Evaluation A (Pre-1980)) was “active; positive”, the call (Species/Cell Type: Nonhuman, Assay Code: CCG+, Evaluation Type: Evaluation A (Pre-1980)) was “active; positive” and the mutagenic call (Species/Cell Type: Nonhuman, Assay Type: Sister-chromatid exchange (SCE) in vitro, Assay Code: SC2+, Evaluation Type: Evaluation B (Post-1980)) was “active; positive”. The mutagenic call (Species/Cell Type: Nonhuman, Assay Type: Sister-chromatid exchange (SCE) in vivo, Assay Code: SC3+D, Dose Response: With dose response, Evaluation Type: Evaluation B (Post-1980)) was “active; positive”, the mutagenic call (Species/Cell Type: Saccharomyces cerevisiae, Assay Type: Mitotic recombination or gene conversion, Assay Code: YEH-, Evaluation Type: Evaluation A (Pre-1980)) was “inactive; negative” and the mutagenic call (Species/Cell Type: Salmonella typhimurium (one or more of the five standard strains: TA98, TA100, TA1535, TA1537, and TA1538), Assay Type: Histidine reverse gene mutation, Ames assay, Assay Code: SAL+*, Activation: With metabolic activation, Evaluation Type: Evaluation A (Pre-1980)) was “active; positive”. For the same compound, the mutagenic call (Species/Cell Type: Salmonella typhimurium, Assay Type: Forward and reverse gene mutation, host-mediated assay, Assay Code: HMA+, Evaluation Type: Evaluation A (Pre-1980)) was “active; positive” and the mutagenic call [2] was “active; positive”.
With `COP(=O)(OC)O/C(C)=C/C(=O)OC(C)c1ccccc1` (stereo not drawn) the mutagenic call (Species/Cell Type: Bacillus subtilis (H17 vs M45), Assay Type: Rec-assay, spot test, DNA effects (bacterial DNA repair), Assay Code: REWT, Evaluation Type: Evaluation A (Pre-1980)) was “no conclusion”, the mutagenic call (Species/Cell Type: Escherichia coli WP2 UVRA, Assay Type: Tryptophan reverse gene mutation, Assay Code: WPU-*, Activation: With metabolic activation, Evaluation Type: Evaluation A (Pre-1980)) was “inactive; negative” and the mutagenic call [3] was “no conclusion”. The mutagenic call (Species/Cell Type: Human diploid fibroblasts, Assay Type: Unscheduled DNA synthesis (UDS) in vitro, DNA effects, Assay Code: UDH-, Evaluation Type: Evaluation A (Pre-1980)) was “inactive; negative”, the mutagenic call (Species/Cell Type: Saccharomyces cerevisiae, Assay Type: Mitotic recombination or gene conversion, Assay Code: YEH+, Evaluation Type: Evaluation A (Pre-1980)) was “active; positive” and the mutagenic call (Species/Cell Type: Salmonella typhimurium (one or more of the five standard strains: TA98, TA100, TA1535, TA1537, and TA1538), Assay Type: Histidine reverse gene mutation, Ames assay, Assay Code: SAL-, Evaluation Type: Evaluation A (Pre-1980)) was “inactive; negative”.
In the case of `O=CNc1nc(-c2ccc([N+](=O)[O-])s2)cs1`, the mutagenic call [1] is reported as “active; positive”.
With `CCCCC=O` the mutagenic call (Species/Cell Type: Human lymphocytes, Assay Type: Sister-chromatid exchange (SCE) in vitro, Assay Code: SCL+, Evaluation Type: Evaluation B (Post-1980)) was “active; positive” and the mutagenic call (Species/Cell Type: Human, Assay Type: Sister-chromatid exchange (SCE) in vitro, Assay Code: SC1+, Evaluation Type: Evaluation B (Post-1980)) was “active; positive”.
